For experiment [1], the system named is calvarial skull bones (hemicalvaria). The experiment in a line: Calvarial skull assay (bone organ culture). The experiment is classed as cell-based, CD1 mice. The method, then: CD1 pups are harvested around birth from CD1 female mice (received from Janvier (Le Genest St Isle, France) when they were 11 days pregnant). Pups are decapitated and the calvarial skull is dissected and split into 2 hemicalvaria. Hemicalvaria are blotted using sterile gauze, weighed and cultured in 24 well plates (MEMalpha or BGJb-Fitton-Jackson medium containing 50 μg/ml L-ascorbic acid (Sigma, A-4034), 5 mM β-glycerophosphate (Sigma, G-9891) and Penicillin-Streptomycin (Invitrogen Cat # 15140-122)). Small molecules (ligands, agonists, antagonists) are tested in at least three-fold at a minimum of 3 concentrations. Each small molecule is added to the medium on day 0 and added again when refreshing the medium (every 2-3 days). Three to 16 days after the start of the experiment, skulls are weighed again after blotting them dry using sterile gauze. The weight difference is calculated, expressed as percent weight change and the mean and standard deviations (SD) are calculated for the triplicate measurements. Data are analyzed using the Student's t-test.
The formation of new osteoid is analyzed histologically as follows: hemicalvaria are fixed in 10% buffered formalin for at least 2 days, decalcified in 10% EDTA overnight, processed through graded alcohols and embedded in paraffin wax. Three to 10 μm sections are prepared of the calvaria and stained with hematoxylin and eosin (H&E). Healthy cells, dead cells, old and new bone, and collagen are identified by their distinctive morphology and colouring observed after H&E staining. The surfaces taken by these are measured stereologically (μm^2 readout) and termed Osteoblast area, Debris area, Native and New bone area, Collagen area and Total area (sum of the previous 5 areas), respectively. In addition, the thickness (μm readout) is measured at 8 positions, evenly spaced over the section.
The histological readout of the calvarial skull assay is developed using known osteogenic agents. Hemicalvaria were treated with recombinant human parathyroid hormone (rhPTH).
T0901317 is added to the culture medium of the dissected hemicalvaria at the day of dissection at several doses (19.5, 78.1 and 313 nM), in fourfold. The concentration of the solvent (vehicle), DMSO, is fixed at a final concentration of 0.05%. The medium, containing T0901317 or vehicle control is refreshed every 2-3 days. Hemicalvaria are harvested 7 days after the initiation of the experiment and subjected to the histological analysis described above.

Experiment [2] relates to osteogenic markers mRNA in MPCs infected with Ad-NR1H3. The experiment in a line: Osteogenic marker mRNA levels (rtRT-PCR) in MPCs infected with Ad-NR1H3 + T0901317. Type of experiment: cell-based, human. As to conditions: Ad-NR1H3 + T0901317 (1 μM). The method, then:
Osteogenic differentiation of MPCs into osteoblasts is accompanied by the up-regulation of osteogenic proteins. […] The MPCs that are used in this study are profiled for the up-regulation of a limited set of osteogenic markers by BMP2. Markers that show differential expression for BMP2 are subsequently tested against mRNA derived from Ad-NR5A2 infected cells or derived from Ad-NR1H3+T0901317 treated cells. 100,000 MPCs are seeded in each well of a 6 well plate in 2 ml MPC medium, containing 10% FCS. The next day, after incubation at 37° C., 10% CO2 in a humidified incubator, cells are co-infected with AdC15-hCAR (final MOI of 750) and Ad-NR5A2, Ad-NR1H3+T0901317 (1 μM) or Ad-BMP2 (positive control) or Ad-eGFP or Ad-luciferase as negative controls (final MOIs of 1250 and 2500). Cells are incubated at 37° C., 10% CO2 in a humidified incubator for a further six days unless cells are already harvested for RNA isolation. Virus is removed and replaced by 2 ml fresh OS medium (proprietary medium containing 10% FCS). Over the next 3 weeks, medium is refreshed 3 times per 2 weeks. Every other time, medium is refreshed half or completely. Monolayers are harvested at several time points (see FIG. 15), total RNA is harvested and quantified and rtRT-PCRs are run as follows: monolayers are washed with ice cold PBS and harvested by adding SV RNA Lysis Buffer. Total RNA is prepared using the SV Total RNA isolation System (Promega, Cat # Z3100). RNA concentration is measured with the Ribogreen RNA Quantification kit (Molecular Probes, Leiden, The Netherlands, Cat No. R-11490). cDNA synthesis is performed using 20 ng total RNA per reaction using the TaqMan Universal PCR Master Mix, No AmpErase UNG, kit (Applied Biosystems, Warrington, UK, Part number 4324018). For each reverse transcriptase (RT) reaction a minus-RT reaction (negative control: no enzyme included in the reaction) is performed. The real-time reverse transcriptase (rtRT)-PCR reaction is performed with gene specific primers on both cDNA and minus-RT samples, using the SYBR Green PCR Master Mix (Applied Biosystems, Warrington, UK, Part number 4309155). Primers are quality controlled by performing PCR reactions on human genomic DNA and on plasmids containing the cDNA encoded by the gene studied if available. If the quality is unsatisfactory, additional primers are designed or validated primer sets are purchased (ABI). For the normalization of the expression levels a RT-PCR reaction is performed on human β-actin using the Human β-actin kit (Applied Biosystems, Warrington, UK, Part number 4310881E). The following program is run on a real-time PCR apparatus (ABI PRISM 7000 Sequence Detection System): 10 min at 25° C., 30 min at 48° C., 5 min at 95° C.
Expression levels for osteogenic marker genes are first normalized for beta-actin levels. The resulting data for Ad-BMP2, Ad-NR5A2 and Ad-NR1H3+T0901317 (1 μM) samples are then compared to those of Ad-eGFP or Ad-luciferase negative control samples, harvested at the same time points, for cells infected at the same MOI.

[3] abbreviates: 19.5, 78.1 and 313 nM, 7 days, histology (H&E).
The mark [4] stands for this setting: up-regulated if 4-fold higher than negative control, one or more time points.

Regarding `O=S(=O)(c1ccccc1)N(CC(F)(F)F)c1ccc(C(O)(C(F)(F)F)C(F)(F)F)cc1` [T0901317, N-(2,2,2-trifluoroethyl)-N-[4-[2,2,2-trifluoro-1-hydroxy-1-(trifluoromethyl)ethyl]phenyl]-benzenesulfonamide], in experiment [1] (19.5, 78.1 and 313 nM, 7 days), the “dose-response activity towards areas of osteoblast” value is on record as “Dose-response activity of the compound is observed”, the “dose-response activity towards thickness” value is “Dose-response activity of the compound is observed” and the “dose-response activity towards total area (sum of all areas measured)” value was “Dose-response activity of the compound is observed”. Further, in experiment [1] (setting [3]), the areas of collagen result is “Statistically significant increases”, the “areas of new bone” value is listed as “Statistically significant increases” and the areas of osteoblast result was “Statistically significant increases”. Further, the “weight increases in calvarial skull explants” value in experiment [1] (FIG. 18) is “Weight increases”. Further, in experiment [2] (setting [4]), the “BAP mRNA expression” value is listed as “up-regulated expression”, the “PTHR1 mRNA expression” value was “up-regulated expression”, the “RANKL mRNA expression” value is recorded as “up-regulated expression” and the “aromatase mRNA expression” value is on record as “up-regulated expression”. For the same compound, in experiment [2] (setting [4]), the “osteopontin mRNA expression” value was “up-regulated expression”. In experiment [2] (MPCs), the “mRNA levels of osteogenic markers” value was “up-regulate mRNA levels of osteogenic markers”.

For the origin of these results see patent US20060020036A1, “Methods and compositions to promote bone homestasis” (priority 2004, published 2006).
